Assay results taken from US20250161285A1, “BACTERIAL BIOFILM INHIBITORS” (THE RESEARCH INSTITUTE AT NATIONWIDE CHILDREN'S HOSPITAL, priority 2022, published 2025).

Columns and labels:
[1] = tested on: S. Typhimurium ATCC 14028 (JSG210) biofilms; test: Biofilm inhibition assay (crystal violet staining); assay type: cell-based, Salmonella enterica serovar Typhimurium; conditions: for IC50: inhibition of S. Typhimurium biofilm formation, compound present 24 h, crystal violet OD570, mean ± standard deviation; for anti-biofilm activity (inhibition and dispersion) in words: S. Typhimurium biofilms in vitro; for fold improvement of IC50 versus comparator: 6a vs 4c, 6b vs 4d, 6g vs 4c and 4d, 8i vs 8b
Protocol: Inhibition of biofilm formation is assessed by growing bacteria in a 96-well plate in the absence (control) or presence of test compounds. After 24 hours, the wells are washed to remove planktonic bacteria, and the remaining surface attached bacteria (biofilm) are stained with crystal violet (CV). The wells are then washed again to remove excess CV, and the remaining CV is solubilized with a solution of acetic acid and then quantified by spectrophotometry at 570 nm. A dose response curve is then constructed from which an IC50 value is determined.
(§1) Salmonella biofilm growth and crystal violet staining. […] For biofilm assays, individual bacterial colonies were picked and used to inoculate LB broth for overnight liquid cultures, which were grown at 37° C. with aeration using a rotating drum. […] Biofilm plates were then submerged in dH2O to wash away any remaining non-adherent bacteria and heat fixed (1h, 60° C.). Biofilms were then stained with a 33% crystal violet solution (6 mL PBS, 3.3 mL crystal violet, 333 μL methanol, 333 μL isopropanol) for 5 min. and washed twice by submerging in dH2O before releasing the bound dye with 33% glacial acetic acid. Biofilm growth was then quantified by measuring the optical density of the solubilized dye at 570 nm using a spectrophotometer (Molecular Devices, SpectraMax M5).
(§2) Biofilm Inhibition and Dispersion Assays and IC50/EC50 Determination. […] Biofilms were then grown as described above for a total of 24 h prior to CV staining. […] Biofilms were then incubated for an additional 24 h in the presence of compounds prior to CV staining. IC50/EC50 values were calculated by plotting normalized compound activity (percent biofilm formed and percent remaining, respectively) as a function of log10 compound concentration and fitting a dose response curve (log[inhibitor] vs. normalized response, variable slope).

[2] = tested on: S. Typhimurium ATCC 14028 (JSG210) biofilms; test: Biofilm dispersion assay on pre-formed biofilms (crystal violet staining); assay type: cell-based, Salmonella enterica serovar Typhimurium; conditions: for EC50: 50% dispersion of biofilms established 24 h, then 24 h with compound, crystal violet OD570, mean ± standard deviation; for fold improvement of dispersion activity (EC50) versus comparator: 4d vs 1, 6g vs 4c and 4d, lead compounds vs parent compound
Protocol: as §1, §2

| Structure (SMILES) | IC50 [1] [µM] | EC50 [2] [µM] | other results |
| --- | --- | --- | --- |
| CN(Cc1ccccc1)CC1CCN(CCc2ccccc2F)CC1 [Compound 3.1a] | 5 | > 75 | – |
| Cc1ccccc1CN(C)CC1CCN(CCc2ccccc2F)CC1 [Compound 3.1b] | 4.4 | > 75 | – |
| CN(Cc1ccccc1F)CC1CCN(CCc2ccccc2F)CC1 [Compound 3.1c] | 14.9 | > 75 | – |
| CN(Cc1ccccc1Cl)CC1CCN(CCc2ccccc2F)CC1 [Compound 3.1d] | 6.3 | > 75 | – |
| CN(Cc1ccccc1Br)CC1CCN(CCc2ccccc2F)CC1 [Compound 3.1e] | 6.5 | 42 | – |
| CN(Cc1ccccc1I)CC1CCN(CCc2ccccc2F)CC1 [Compound 3.1f] | 4.4 | 53 | – |
| CN(Cc1cccc(Cl)c1)CC1CCN(CCc2ccccc2F)CC1 [Compound 3.1h] | 5.6 | > 75 | – |
| CN(Cc1ccc(F)cc1)CC1CCN(CCc2ccccc2F)CC1 [Compound 3.1i] | 5.5 | > 75 | – |
| CN(Cc1cccc(Cl)c1Cl)CC1CCN(CCc2ccccc2F)CC1 [Compound 3.1l] | 5.6 | 43 | – |
| CN(Cc1ccccc1)CC1CCN(CCc2ccc(Cl)c(Cl)c2)CC1 [Compound 3.2a] | 0.59 | 35 | – |
| CN(Cc1ccccc1I)CC1CCN(CCc2ccc(Cl)c(Cl)c2)CC1 [Compound 3.2d] | 3.4 | 26 | – |
| CN(Cc1cccc(Cl)c1)CC1CCN(CCc2ccc(Cl)c(Cl)c2)CC1 [Compound 3.2f] | 2.3 | 21 | – |
| CN(Cc1ccc(Cl)c(Cl)c1)CC1CCN(CCc2ccc(Cl)c(Cl)c2)CC1 [Compound 3.2h] | 0.96 | 17 | – |
| CN(Cc1ccccc1)CC1CCN(CCc2ccc(Cl)cc2Cl)CC1 [Compound 3.3a] | 4.3 ± 2.1 | 11 ± 7 | – |
| CN(Cc1ccccc1Cl)CC1CCN(CCc2ccc(Cl)cc2Cl)CC1 [Compound 3.3c] | 11.3 ± 7.3 | 14 ± 10 | – |
| CN(Cc1ccccc1I)CC1CCN(CCc2ccc(Cl)cc2Cl)CC1 [Compound 3.3d] | 10.1 ± 4.5 | > 50 | – |
| CN(Cc1cccc(Cl)c1Cl)CC1CCN(CCc2ccc(Cl)cc2Cl)CC1 [Compound 3.3i] | 6.5 ± 2.5 | 8 ± 4 | – |
| CN(Cc1cccc2ccccc12)CC1CCN(CCc2ccccc2F)CC1 [Compound 3.4a] | 4.2 ± 2.9 | 12 ± 8 | – |
| CN(Cc1ccccn1)CC1CCN(CCc2ccccc2F)CC1 [Compound 3.8a] | > 20 | > 50 | – |
| CN(Cc1ccncc1)CC1CCN(CCc2ccccc2F)CC1 [Compound 3.8c] | > 20 | > 50 | – |
| CN(Cc1ccsc1)CC1CCN(CCc2ccccc2Cl)CC1 [Compound 4a] | 6 ± 1.4 | 232 ± 6 | – |
| CN(Cc1ccsc1)CC1CCN(CCc2ccccc2Br)CC1 [Compound 4b] | 7.2 ± 1.6 | 308 ± 11 | – |

| Structure (SMILES) | IC50 [1] [µM] | EC50 [2] [µM] | other results |
| --- | --- | --- | --- |
| CN(Cc1ccsc1)CC1CCN(CCc2cccc(F)c2)CC1 [Compound 4c] | 6.9 ± 0.1 | 388 ± 19 | – |
| CN(Cc1ccsc1)CC1CCN(CCc2ccc(F)cc2)CC1 [Compound 4d] | 16.8 ± 3.4 | 235 | fold improvement of dispersion activity (EC50) versus comparator [2]: ca. 3.5 |
| CN(Cc1ccsc1)CC1CCN(CCc2cc(F)cc(F)c2)CC1 [Compound 4e] | > 200 | > 12000 | anti-biofilm activity (inhibition and dispersion) in words [1]: inactive |
| COc1ccccc1CCN1CCC(CN(C)Cc2ccsc2)CC1 [Compound 4f] | 16.9 ± 5.2 | 11760 ± 77 | – |
| CN(Cc1ccsc1)CC1CCN(CCc2ccccc2)CC1 [Compound 4g] | 21.2 ± 2.6 | > 12000 | – |
| CNCC1CCN(CCc2ccccc2F)CC1 [Compound 5] | – | – | anti-biofilm activity (inhibition and dispersion) in words [1]: abrogated activity; IC50 ([1]; Salmonella enterica): > 200 µM; EC50 ([2]; Salmonella enterica): > 12000 µM |
| CN(Cc1ccsc1)CC1CCN(CCc2cccc(Cl)c2)CC1 [Compound 6a] | 2 | 135 ± 12 | fold improvement of IC50 versus comparator [1]: over two-fold |
| CN(Cc1ccsc1)CC1CCN(CCc2ccc(Cl)cc2)CC1 [Compound 6b] | 3 ± 1.4 | 69 ± 4 | fold improvement of IC50 versus comparator [1]: over four-fold |
| CN(Cc1ccsc1)CC1CCN(CCc2cccc(Br)c2)CC1 [Compound 6c] | 3.6 | 83 ± 6 | – |
| CN(Cc1ccsc1)CC1CCN(CCc2ccc(Br)cc2)CC1 [Compound 6d] | 3 ± 0.7 | 57 ± 4 | – |
| CN(Cc1ccsc1)CC1CCN(CCc2cc(Cl)cc(Cl)c2)CC1 [Compound 6e] | 1.6 | 45 | – |
| CN(Cc1ccsc1)CC1CCN(CCc2cc(Br)cc(Br)c2)CC1 [Compound 6f] | 3.4 | 42 | – |
| CN(Cc1ccsc1)CC1CCN(CCc2ccc(F)c(F)c2)CC1 [Compound 6g] | 3 ± 0.2 | 87 ± 13 | fold improvement of IC50 versus comparator [1]: over two-fold; fold improvement of dispersion activity (EC50) versus comparator [2]: over two-fold |
| CN(Cc1ccsc1)CC1CCN(CCc2c(F)cccc2F)CC1 [Compound 6h] | 6.3 ± 0.6 | 138 ± 18 | – |
| CN(Cc1ccsc1)CC1CCN(Cc2ccccc2F)CC1 [Compound 6i] | 8.8 ± 0.8 | 125 ± 6 | – |
| CN(Cc1ccsc1)CC1CCN(Cc2ccccc2Cl)CC1 [Compound 6j] | 2.7 ± 0.7 | 1810 ± 176 | – |
| CN(Cc1ccsc1)CC1CCN(Cc2ccccc2)CC1 [Compound 6k] | 26.7 ± 1.2 | > 12000 | – |
| CN(Cc1ccsc1)CC1CCN(CCCc2ccccc2F)CC1 [Compound 6l] | 11.5 ± 2.7 | 221 ± 17 | – |
| CN(Cc1ccsc1)CC1CCN(CCCc2ccccc2Cl)CC1 [Compound 6m] | 5.4 ± 1.2 | 59 ± 4 | – |
| CN(Cc1ccsc1)CC1CCN(CCCc2ccccc2)CC1 [Compound 6n] | 78.1 ± 3.7 | > 12000 | – |
| CN(Cc1ccsc1)CC1CCN(CCc2ccc(Cl)c(Cl)c2)CC1 [Compound 7a] | 1.4 | 45 ± 2 | – |
| CN(Cc1ccsc1)CC1CCN(CCc2ccc(Cl)cc2Cl)CC1 [Compound 7c] | 2.5 ± 0.5 | 22 ± 2 | – |

| Structure (SMILES) | IC50 [1] [µM] | EC50 [2] [µM] | other results |
| --- | --- | --- | --- |
| CN(Cc1ccsc1)CC1CCN(CCc2ccccc2C(F)(F)F)CC1 [Compound 7e] | 12.7 ± 4.1 | 60 ± 2 | – |
| CN(Cc1ccsc1)CC1CCN(Cc2ccccc2Br)CC1 [Compound 7f] | 4.9 ± 0.8 | 79 ± 3 | – |
| CN(Cc1ccsc1)CC1CCN(Cc2cccc(Cl)c2)CC1 [Compound 7h] | 5.2 ± 1.3 | 299 ± 21 | – |
| CN(Cc1ccsc1)CC1CCN(Cc2cccc(Br)c2)CC1 [Compound 7i] | 6.5 ± 2.9 | 142 ± 9 | – |
| CN(Cc1ccsc1)CC1CCN(Cc2ccc(F)cc2)CC1 [Compound 7j] | 12.9 ± 1.4 | 443 ± 52 | – |
| CN(Cc1ccsc1)CC1CCN(Cc2ccc(Cl)cc2)CC1 [Compound 7k] | 5.9 ± 2.8 | 934 ± 26 | – |
| CN(Cc1ccsc1)CC1CCN(Cc2ccc(Br)cc2)CC1 [Compound 7l] | 8.5 ± 1.8 | 127 ± 13 | – |
| CN(Cc1ccsc1)CC1CCN(Cc2cc(F)cc(F)c2)CC1 [Compound 7m] | 14.2 ± 1.7 | > 12000 | – |
| CN(Cc1ccsc1)CC1CCN(Cc2c(F)cccc2F)CC1 [Compound 7n] | > 200 | > 12000 | – |
| CN(Cc1ccsc1)CC1CCN(Cc2ccc(F)c(F)c2)CC1 [Compound 7o] | 7.2 ± 1.8 | 3800 ± 204 | – |
| CN(Cc1ccsc1)CC1CCN(Cc2cc(Cl)ccc2Cl)CC1 [Compound 7p] | 15.8 ± 1.4 | 196 ± 27 | – |
| CN(Cc1ccsc1)CC1CCN(Cc2cccc(Cl)c2Cl)CC1 [Compound 7r] | 2.7 ± 1.4 | 70 ± 8 | – |
| CN(Cc1ccsc1)CC1CCN(Cc2ccc(Br)c(Br)c2)CC1 [Compound 7s] | 11.9 ± 1.7 | 32 ± 1 | – |
| CN(Cc1ccsc1)CC1CCN(Cc2cccc(F)c2F)CC1 [Compound 7t] | 146 | 870 ± 79 | – |
| CN(Cc1ccsc1)CC1CCN(Cc2ccccc2C(F)(F)F)CC1 [Compound 7u] | 20.9 | 140 ± 39 | – |
| CN(Cc1ccsc1)CC1CCN(CCc2ccccc2I)CC1 [Compound 8a] | 4.3 | 60 ± 2 | – |
| CN(Cc1ccsc1)CC1CCN(CCc2cccc(I)c2)CC1 [Compound 8b] | 4 ± 0.7 | 44 ± 2 | – |
| CN(Cc1ccsc1)CC1CCN(CCc2ccc(I)cc2)CC1 [Compound 8c] | 2.6 | 89 ± 10 | – |
| CN(Cc1ccsc1)CC1CCN(Cc2ccccc2I)CC1 [Compound 8d] | 5.4 ± 0.5 | 79 ± 5 | – |
| CN(Cc1ccsc1)CC1CCN(Cc2cccc(I)c2)CC1 [Compound 8e] | 10 ± 4.5 | 92 ± 3 | – |
